Patent US10363284B2, “β-hairpin peptidomimetics” (POLYPHOR AG, priority 2012, dated 2019)
Like-named read-outs stand apart in the source and are kept apart here. Positions of bridges follow the written chain, without caps; N, C: chain ends. Non-standard residues stand in square brackets, D forms with d. Residues, ends and D or L forms follow the SMILES beside them. dLys(iPr) = CC(C)NCCCC[C@@H](N)C(=O)O; Lys(iPr) = CC(C)NCCCC[C@H](N)C(=O)O; Orn(iPr) = CC(C)NCCC[C@H](N)C(=O)O; Ac3c = NC1(C(=O)O)CC1

Key:
[1] = Plasma stability, mouse plasma; format: in vitro ADME; details: for mouse pl. T1/2: 37° C.; for remaining at 24 h, 10 μM: 1440 min, read-out: mouse pl. cpd left at 1440 min
Procedure: The stability of the peptides in human and mouse plasma was determined by applying the following method: 346.5 μL/deep well of freshly thawed human plasma (Basler Blutspende-dienst) and mouse plasma (Harlan Sera-Lab, UK), respectively, were spiked with 3.5 μL/well of compound dissolved in DMSO/H2O (90/10 [v/v], 1 mM, triplicate) and incubated at 37° C. At t=0, 15, 30, 60, 120, 240 and 1440 min aliquots of 50 μL were transferred to filtration plate wells containing 150 μL/well of 2% formic acid in acetonitrile. Following shaking for 2 min the occurred suspensions were filtrated by vacuum. 100 μL of each filtrate were transferred to a propylene microtiter plate and dried under N2. The residual solids were reconstituted by adding 100 μL/well of water/acetonitrile, 95/5 (v/v)+0.2% formic acid and analyzed by LC/MS as follows: Column: Waters, XBridge C18, mobile phases: (A) water+0.1% formic acid and (B) acetonitrile/water, 95/5 (v/v)+0.1% formic acid, gradient: 5%-100% (B) in 1.8 minutes, electrospray ionization, MRM detection (triple quadrupole). The peak areas were determined and triplicate values are averaged. The stability is expressed in percent of the initial value at t=0. (tx/t0×100). By using the TREND function of EXCEL (Microsoft Office 2003) T1/2 were determined.

in vitro = format: cell-based
Procedure: Namalwa cells (CXCR4 natively expressing non-adherent cells, ATCC CRL-1432) were cultured in RPM11640 plus 10% FBS, and pen/strept. HELA cells were maintained in RPMI1640 plus 10% FBS, pen/strept and 2 mM L-glutamine. Cos-7 cells were grown in DMEM medium with […] glucose supplemented with 10% FCS, pen/strept and 2 mM L-glutamine. All cell lines were grown at 37° C. at 5% CO2. Cell media, media supplements, PBS-buffer, HEPES, antibiotic/antimycotic, pen/strept, non essential amino acid, L-glutamine, β-mercaptoethanol and sera were purchased from Gibco (Pailsey, UK). All fine chemicals were supplied by Merck (Darmstadt, Germany).
The cytotoxicity of the peptides to HELA cells (Acc57) and COS-7 cells (CRL-1651) was determined using the MTT reduction assay (T. Mossman, J. Immunol. Meth. 1983, 65, 55-63; M. V. Berridge, A. S. Tan, Arch. Biochem. Biophys. 1993, 303, 474-482). Briefly, the method was as follows: 4000 HELA cells/well and 3400 COS-7 cells/well were seeded and grown in 96-well microtiter plates for 24 h at 37° C. at 5% CO2. Thereafter, time zero (Tz) was determined by MTT reduction (see below). The supernatant of the remaining wells was discarded, and fresh medium and compounds in serial dilutions (12.5, 25 and 50 μM, triplicates; 0 μM, blank) were pipetted into the wells. After incubation of the cells for 48 h at 37° C. at 5% CO2 the supernatant was discarded again and 100 μL MTT reagent (0.5 mg/mL in RPMI1640 and DMEM, respectively)/well was added. Following incubation at 37° C. for 2-4 h the media were aspirated and the cells were spiked (100 μL isopropanol/well). The absorbance of the solubilized formazan was measured at 595 nm (OD595peptide). For each concentration averages were calculated from triplicates. The percentage of growth was calculated as follows: (OD595peptide−OD595Tz)/(OD595blank−OD595Tz)×100%. The GI50 (Growth Inhibition) concentrations were calculated for each peptide by using a trend line function for the concentrations (50, 25, 12.5 and 0 μM), the corresponding percentages and the value 50, (=TREND (C50:C0,%50:%0, 50).

Plasma protein binding = format: in vitro ADME; details: human
Procedure: 495 μL aliquots of human plasma (Basler Blutspendedienst) as well as 495 μL aliquots of PBS were placed in individual deepwells of a polypropylene plate (Greiner) and spiked each with 5 μL of 1 mM solutions of peptides in 90% DMSO. After shaking the plate for 2 min at 600 rpm 150 μL aliquots of the plasma/peptide mixtures were transferred in triplicates to the polypropylene filter plate (10 kDa, Millipore) whereas 150 μL aliquots of the PBS/peptide mixtures were transferred either to the individual wells of the filter plate (filtered controls) or directly into the individual wells of the receiving plate (Greiner) (non-filtered controls). The plate sandwich consisting of filter and receiving plate was incubated for 1 h at 37° C. and subsequently centrifuged at 3220 g for 2 h at 15° C. The filtrates in the receiving plate were analysed by LC/MS as follows: Column: Waters, XBridge C18, mobile phases: (A) water+0.1% formic acid and (B) acetonitrile/water, 95/5 (v/v)+0.1% formic acid, gradient: 5%-100% (B) in 1.8 minutes, electrospray ionization, MRM detection (triple quadrupole). The peak areas were determined and triplicate values are averaged. The binding is expressed in percent of the filtered and non-filtered controls by 100−(100×T1h/Tctr). Finally the average of these values is calculated.

[2] = tested on: human red blood cells (hRBC); format: cell-based; details: red cells of human, 1 h
Procedure: The peptides were tested for their hemolytic activity against human red blood cells (hRBC). Fresh hRBC were washed four times with phosphate buffered saline (PBS) and centrifuged for 10 min at 3000×g. Compounds (100 μM) were incubated with 20% hRBC (v/v) for 1 h at 37° C. and shaking at 300 rpm. The final erythrocyte concentration was approximately 0.9×10^9 cells/mL. A value of 0% and 100% cell lysis, respectively, was determined by incubation of hRBC in the presence of PBS containing 0.001% acetic acid and 2.5% Triton X-100 in H2O, respectively. The samples were centrifuged, the supernatants were 8-fold diluted in PBS buffer and the optical densities (OD) were measured at 540 nm. The 100% lyses value (OD540H2O) gave an OD540 of approximately 0.5-1.0.
Percent hemolysis was calculated as follows: (OD540peptide/OD540H2O)×100%.

[3] = read-out: Plasma protein binding (converted)

| Structure (SMILES) | mouse pl. T1/2 [1] | remaining at 24 h, 10 μM [1] | GI50 at 48 h (in vitro; African green monkey) | GI50 at 48 h (in vitro; human) | fraction unbound at 1 h, 10 μM (Plasma protein binding; read-out: Fraction unbound, fu) | fraction unbound at 1 h, 10 μM (Plasma protein binding; [3]) | Hemolysis at 100 μM [2] |
| --- | --- | --- | --- | --- | --- | --- | --- |
| CC(C)NCCCC[C@@H]1NC(=O)[C@H](CCC(N)=O)NC(=O)[C@H](Cc2ccc(O)cc2)NC(=O)[C@@H]2CSSC[C@H](NC(=O)[C@H](Cc3ccc(O)cc3)NC(=O)[C@H](Cc3c[nH]cn3)NC(=O)[C@H](Cc3ccc(O)cc3)NC(=O)[C@@H]3CCCN3C(=O)[C@@H](CCCCNC(C)C)NC1=O)C(=O)N[C@@H](CO)C(=O)N[C@@H](C)C(=O)N1CCC[C@@H]1C(=O)N[C@@H](CCCNC(C)C)C(=O)N[C@@H](CCCNC(=N)N)C(=O)N[C@@H](Cc1ccc(O)cc1)C(=O)N2 [Ex. 1, cyclo(-Tyr^1-His^2-Tyr^3-Cys^4-Ser^5-Ala^6-^DPro^7-Orn(iPr)^8-Arg^9-Tyr^10-Cys^11-Tyr^12-Gln^13-Lys(iPr)^14-^DLys(iPr)^15-Pro^16-), disulfide bond between Cys^4 and Cys^11] (cyclo(A[dP][Orn(iPr)]RYCYQ[Lys(iPr)][dLys(iPr)]PYHYCS); disulfide 6-15) | 24 h | 100% | > 50 µM | > 42 µM | 0.45 | 0.45 | 1.0% |
| CC(C)NCCCC[C@@H]1NC(=O)[C@H](CCC(N)=O)NC(=O)[C@H](Cc2ccc(O)cc2)NC(=O)[C@@H]2CSSC[C@H](NC(=O)[C@H](Cc3ccc(O)cc3)NC(=O)[C@H](Cc3c[nH]cn3)NC(=O)[C@H](Cc3ccc(O)cc3)NC(=O)[C@@H]3CCCN3C(=O)[C@H]3CCCN3C1=O)C(=O)N[C@@H](CO)C(=O)NC1(CC1)C(=O)N1CCC[C@@H]1C(=O)N[C@@H](CCCNC(C)C)C(=O)N[C@@H](CCCNC(=N)N)C(=O)N[C@@H](Cc1ccc(O)cc1)C(=O)N2 [Ex. 2, cyclo(-Tyr^1-His^2-Tyr^3-Cys^4-Ser^5-Acc^6-^DPro^7-Orn(iPr)^8-Arg^9-Tyr^10-Cys^11-Tyr^12-Gln^13-Lys(iPr)^14-^DPro^15-Pro^16-), disulfide bond between Cys^4 and Cys^11] (cyclo(YHYCS[Ac3c][dP][Orn(iPr)]RYCYQ[Lys(iPr)][dP]P); disulfide 4-11) | 24 h | 100% | > 50 µM | > 34 µM | 0.57 | 0.57 | 1.0% |
